Measured values as given in EPA's ToxValDB 9.5 (doi:10.2903/j.efsa.2012.2502).

How the values were obtained:
Rattus norvegicus = conditions: for LD50: acute, oral, mortality; for NOAEL: reproduction developmental, histopathology: nonneoplastic
Apis mellifera = conditions: acute, mortality
Oncorhynchus mykiss = conditions: acute; duration: 96 hours; mortality
Oryctolagus sp. = conditions: developmental; development
Tagia sp. = conditions: acute; duration: 14 days; mortality
Typhlodromus pyri = assay: LR50; higher = less toxic; conditions: not reported; mortality
Colinus virginianus = conditions: acute, oral, mortality

Compound | LD50 (Rattus norvegicus) | NOAEL (Rattus norvegicus) | LD50 (Apis mellifera; dermal) | LD50 (Apis mellifera; oral, unspecified) | LC50 (Oncorhynchus mykiss) | NOAEL (Oryctolagus sp.) | LC50 (Tagia sp.) | LR50 (Typhlodromus pyri) | LD50 (Colinus virginianus; diet) | LD50 (Colinus virginianus)
C=C1C[C@]23C[C@H]1CC[C@H]2[C@@]12C=C[C@H](O)[C@@](C)(C(=O)O1)[C@H]2[C@@H]3C(=O)O [Gibberellin A7] | > 5000 mg/kg | 300 mg/kg-day | > 100 µg/piece | > 87 µg/piece | > 1.3 µg/mL | 300 mg/kg-day | > 1250 mg/kg | > 40 g/ha |  | 
C=C1C[C@]23C[C@@]1(O)CC[C@H]2[C@@]12C=C[C@H](O)[C@@](C)(C(=O)O1)[C@H]2[C@@H]3C(=O)O [Gibberellic acid] |  |  |  |  |  |  |  |  | > 1380 mg/kg-day | > 2250 mg/kg
C=C1C[C@]23C[C@H]1CC[C@H]2[C@@]12CC[C@H](O)[C@@](C)(C(=O)O1)[C@H]2[C@@H]3C(=O)O [Gibberellin A4] | > 5000 mg/kg | 300 mg/kg-day | > 100 µg/piece | > 87 µg/piece | > 1.3 µg/mL | 300 mg/kg-day | > 1250 mg/kg | > 40 g/ha |  | 
